The values below come from US20110105496A1, “Methods For The Treatment Of Myosin Heavy Chain-Mediated Conditions Using 4,7-Dihydrothieno[2,3-B]Pyridine Compounds” (priority 2005, published 2011).

Like-named read-outs stand apart in the source and are kept apart here.

This test relates to alpha-MyHC. Nature of the test: alpha-MyHC cytoblot process in neonatal rat ventricular myocytes (NRVM). The class given is cell-based. On the procedure: In vitro activity of each compound is measured using the alpha-MyHC cytoblot process. Briefly, neonatal rat ventricular myocytes (NRVM) at 120,000 cells/ml in HyQ DME/High modified culture media supplemented with 10% charcoal/dextran treated FBS, 0.1% Nutridoma-SP, 1:100 MEM non-essential amino acids, 1:50 MEM amino acids solution w/o L-Gln, 1 mM sodium pyruvate and 1:100 P/S/G, are plated on gelatin coated sterile 384-well plates (Costar 3712) at 6,000 cells per well. Cells are incubated overnight at 37° C. in 5% CO2 100% humidity. Following overnight growth the media is changed to HyQ DME/High modified culture media supplemented with 0.3% Nutridoma-SP, 1:100 MEM non-essential amino acids, 1:50 MEM amino acids solution w/o L-Gln, 1 mM sodium pyruvate and 1:100 P/S/G. Cells are then dosed with serial dilutions of each compound in DMSO. Each concentration in the dose range is dosed in quadruplicate. Dosing is done in such a way so that the final DMSO concentration was 0.44%. Compound dilutions are 3-fold with the final top concentration of 10 uM. […] Following dosing, the cells are incubated for 72 hours at 37° C. in 5% CO2 100% humidity and then processed with the cytoblot method. Briefly, cell media is aspirated and cell monolayers washed with PBS and fixed with 100% methanol for 30 minutes. Fixed cells are then blocked with PBS, 0.05% Tween-20, 1% BSA, for 1 hour. Following blocking, cells are incubated with primary alpha-MyHC-specific antibody antibody (1:30 dilution of BA-G5 hybridoma conditioned media, ATCC HB276) for 1 hour. Following incubation with the primary antibody, cells are washed with PBS, 0.05% Tween-20, 1% BSA and incubated with secondary antibody (1:1000 dilution, goat-anti-mouse HRP, Southern Biotech, 1031-05) for 1 hour. Following incubation with the secondary antibody, wells are washed and incubated in SuperSignal, West Dura HRP-luminescence substrate for 30 seconds under shaking at room temperature. Luminescence is measured using a Packard Fusion plate reader. […] RLU values are converted into per cent fraction of low control and dose responses are fitted to a sigmoidal 4-parameter equation (XLFit, IDBS) where the EC50 and Max Plateau values were extracted. […] Max Plateau is the […] maximum value determined by the dose response fit.

The mark [1] stands for this setting: Table 1, NRVM, 72 hours, alpha-MyHC cytoblot, mean ± spread.
[2] abbreviates: Table 1, NRVM, 72 hours, maximum of dose response fit, low control = vehicle only.
Setting [3] is: Table 2 (esters), NRVM, 72 hours, alpha-MyHC cytoblot.
The mark [4] stands for this setting: Table 2 (esters), NRVM, 72 hours, maximum of dose response fit.

For the compound `CCC(=O)C1=C(CC)Nc2sc(C(=O)c3ccc(Cl)c(Cl)c3)c(N)c2C1c1ccccc1Cl` (stereo not drawn) [Compound 53], under setting [1], the EC50 (in general, the concentration needed to bring the measured effect to its halfway point) came out at 0.0581 µM. Further, under setting [2], the “Max Plateau” value was 259.43 ± 26.30 per cent fraction of low control.

Take `CC(=O)C1=C(C)Nc2sc(C(=O)c3ccccc3)c(N)c2C1c1cccnc1` (stereo not drawn) [Compound 20]: the “Max Plateau” value under setting [2] is on record as 127.35 ± 23.71 per cent fraction of low control.

Compound `CCOC(=O)C1=C(CC)Nc2sc(C(=O)c3cccc(C(=O)O)c3)c(N)c2C1c1ccccc1` (stereo not drawn) [Compound 152] yielded an EC50 under setting [3] of 2.91 µM. Besides, under setting [4], the “Max Plateau” value is 238.69 per cent fraction of low control.

Under setting [1], `CC(=O)C1=C(C)Nc2sc(C(=O)c3ccc(Cl)c(Cl)c3)c(N)c2C1c1cc(F)cc(F)c1` (stereo not drawn) [Compound 55] showed an EC50 of 0.0452 µM. Also, the “Max Plateau” value under setting [2] is reported as 229.93 ± 37.33 per cent fraction of low control.

In the case of `CC(=O)C1=C(C)Nc2sc(C(=O)c3ccc(Cl)c(Cl)c3)c(N)c2C1c1ccc(Cl)c(Cl)c1` (stereo not drawn) [Compound 47], the midpoint of the response under setting [1], the EC50, lay at 0.116 µM. For the same compound, the “Max Plateau” value under setting [2] is 173.47 ± 25.64 per cent fraction of low control.

For the compound `C=CCOC(=O)C1=C(C)Nc2sc(C(=O)c3ccc(Cl)c(Cl)c3)c(N)c2C1c1ccccc1` (stereo not drawn) [Compound 127], the response under setting [3] was half-maximal at 0.054 µM (EC50). Moreover, the “Max Plateau” value under setting [4] is reported as 195.71 ± 29.42 per cent fraction of low control.

The compound `CCC(=O)C1=C(CC)Nc2sc(C(=O)c3cccc(Cl)c3)c(N)c2C1c1ccccc1` (stereo not drawn) [Compound 66] gave an EC50 under setting [1] of 0.00494 µM. Under setting [2], the “Max Plateau” value is listed as 306.19 ± 54.21 per cent fraction of low control.

On to `CC(=O)C1=C(C)Nc2sc(C(=O)c3ccc(Cl)c(Cl)c3)c(N)c2C1c1cccc2c1OCO2` (stereo not drawn) [Compound 31], for which, under setting [2], the “Max Plateau” value was 121.08 ± 18.32 per cent fraction of low control.

In the case of `CCC1=C(C(=O)OC)C(c2c(F)cccc2F)c2c(sc(C(=O)c3cccc([N+](=O)[O-])c3)c2N)N1` (stereo not drawn) [Compound 141], the EC50 under setting [3] was found to be 0.0143 µM. Moreover, under setting [4], the “Max Plateau” value is 261.69 per cent fraction of low control.

With `CCC1=C(C(=O)OC(C)CC)C(c2ccccc2F)c2c(sc(C(=O)c3cccc(C#N)c3)c2N)N1` (single isomer, unassigned) [Compound 166], the EC50 under setting [3] was found to be 0.0333 µM. Moreover, under setting [4], the “Max Plateau” value is listed as 219.07 per cent fraction of low control.

`CC(=O)C1=C(C)Nc2sc(C(=O)c3ccc(Cl)c(Cl)c3)c(N)c2C1c1ccc(F)cc1` (stereo not drawn) [Compound 50] displayed an EC50 under setting [1] of 0.161 µM. For the same compound, the “Max Plateau” value under setting [2] is reported as 190.79 ± 27.94 per cent fraction of low control.

Regarding `CCC1=C(C(=O)OC(C)CC)C(c2ccccc2F)c2c(sc(C(=O)c3ccc(Cl)c(Cl)c3)c2N)N1` (single isomer, unassigned) [Compound 162], a half-maximal effect under setting [3] (EC50) was put at 0.197 µM. Further, the “Max Plateau” value under setting [4] is given as 183.22 per cent fraction of low control.

Turning to `CCC(=O)C1=C(CC)Nc2sc(C(=O)c3ccc(Cl)c(Cl)c3)c(N)c2C1c1ccc2ccccc2c1` (stereo not drawn) [Compound 88], the “Max Plateau” value under setting [2] was 113.45 ± 11.92 per cent fraction of low control.

Consider `CCC1=C(C(=O)OCCOC)C(c2ccnc(F)c2)c2c(sc(C(=O)c3cccc(Cl)c3)c2N)N1` (single isomer, unassigned) [Compound 191], for which the “Max Plateau” value under setting [4] is 263.67 ± 1.13 per cent fraction of low control.

As to `CC(=O)C1=C(C)Nc2sc(C(=O)c3ccccc3Cl)c(N)c2C1c1ccccc1` (stereo not drawn) [Compound 57], the EC50 under setting [1] turned out to be 1.25 µM. Also, under setting [2], the “Max Plateau” value is reported as 246.00 ± 16.33 per cent fraction of low control.

Regarding `CCOC(=O)C1=C(CC)Nc2sc(C(=O)c3cc(F)cc(F)c3)c(N)c2C1c1ccccc1` (stereo not drawn) [Compound 151], under setting [3], a half-maximal response (EC50) required 0.0101 µM. Besides, the “Max Plateau” value under setting [4] is on record as 273.61 per cent fraction of low control.

The compound `CCOC(=O)C1=C(CC)Nc2sc(C(=O)c3cc(Cl)ccc3Cl)c(N)c2C1c1ccccc1` (stereo not drawn) [Compound 146] showed an EC50 under setting [3] of 0.00403 µM. The “Max Plateau” value under setting [4] was 213.49 per cent fraction of low control.

Turning to `CCC1=C(C(=O)OC)C(c2cc(F)cc(F)c2)c2c(sc(C(=O)c3ccccc3)c2N)N1` (stereo not drawn) [Compound 172], under setting [3], the EC50 turned out to be 0.000478 µM. Under setting [4], the “Max Plateau” value is 304.08 per cent fraction of low control.

Consider `CCOC(=O)C1=C(CC)Nc2sc(C(=O)c3ccc(F)c(F)c3)c(N)c2C1c1ccncc1F` (stereo not drawn) [Compound 173], for which, under setting [4], the “Max Plateau” value is recorded as 257.43 per cent fraction of low control.

Consider `CCCC(=O)C1=C(CCC)Nc2sc(C(=O)c3cc(Cl)ccc3Cl)c(N)c2C1c1ccccc1` (stereo not drawn) [Compound 94], for which the EC50 under setting [1] turned out to be 0.118 µM. In addition, the “Max Plateau” value under setting [2] is 153.83 ± 13.14 per cent fraction of low control.

`CCC(=O)C1=C(CC)Nc2sc(C(=O)c3ccc(Cl)c(Cl)c3)c(N)c2C1c1ccc(OC)cc1F` (stereo not drawn) [Compound 81] came in with an EC50 under setting [1] of 0.35 µM. Further, under setting [2], the “Max Plateau” value is 184.00 ± 15.51 per cent fraction of low control.

The compound `CCC(=O)C1=C(CC)Nc2sc(C(=O)c3ccc(Cl)c(Cl)c3)c(N)c2C1c1cc(F)cc(F)c1` (stereo not drawn) [Compound 100] gave an EC50 under setting [1] of 0.00573 µM. Further, the “Max Plateau” value under setting [2] is 262.04 ± 31.65 per cent fraction of low control.

`CC(=O)C1=C(C)Nc2sc(C(=O)c3ccccc3)c(N)c2C1c1ccc(Cl)cc1` (stereo not drawn) [Compound 21]: the EC50 under setting [1] is 0.583 µM. The “Max Plateau” value under setting [2] was 193.20 ± 49.26 per cent fraction of low control.

Turning to `CCCC(=O)C1=C(CCC)Nc2sc(C(=O)c3ccc(F)c(F)c3)c(N)c2C1c1ccccc1` (stereo not drawn) [Compound 95], a half-maximal effect under setting [1] (EC50) was put at 0.61 µM. Moreover, the “Max Plateau” value under setting [2] is 147.01 ± 6.43 per cent fraction of low control.

`CC(=O)C1=C(C)Nc2sc(C(=O)c3ccc(Cl)c(Cl)c3)c(N)c2C1c1cc(Cl)cc(Cl)c1` (stereo not drawn) [Compound 33] yielded an EC50 under setting [1] of 1.95 µM. For the same compound, the “Max Plateau” value under setting [2] is listed as 143.15 ± 21.22 per cent fraction of low control.

Under setting [3], `CCC1=C(C(=O)OC(C)COC)C(c2ccccc2F)c2c(sc(C(=O)c3cccc(C#N)c3)c2N)N1` (stereo not drawn) [Compound 182] displayed an EC50 of 0.0609 µM. In addition, the “Max Plateau” value under setting [4] is listed as 251.54 ± 25.09 per cent fraction of low control.

With `CCC(=O)C1=C(CC)Nc2sc(C(=O)c3ccc(Cl)c(Cl)c3)c(N)c2C1c1ccnc(Cl)c1` (stereo not drawn) [Compound 99], under setting [1], a half-maximal response (EC50) required 0.00523 µM. Besides, the “Max Plateau” value under setting [2] is 264.37 ± 33.84 per cent fraction of low control.

Turning to `COCC1=C(C(=O)OC)C(c2ccccc2)c2c(sc(C(=O)c3ccc(Cl)c(Cl)c3)c2N)N1` (stereo not drawn) [Compound 120], the response under setting [3] was half-maximal at 0.157 µM (EC50). Under setting [4], the “Max Plateau” value is 140.79 per cent fraction of low control.

Compound `CC(=O)C1=C(C)Nc2sc(C(=O)c3ccccc3)c(N)c2C1c1ccccc1` (stereo not drawn) [Compound 3] registered an EC50 under setting [1] of 0.797 µM. The “Max Plateau” value under setting [2] is on record as 250.88 ± 32.62 per cent fraction of low control.

For the compound `CC1=C(C(=O)OC(C)C)C(c2ccccc2)c2c(sc(C(=O)c3ccc(Cl)c(Cl)c3)c2N)N1` (stereo not drawn) [Compound 135], under setting [3], the midpoint of the response, the EC50, lay at 0.118 µM. The “Max Plateau” value under setting [4] is given as 186.32 per cent fraction of low control.

As for `CCC(=O)C1=C(CC)Nc2sc(C(=O)c3ccccc3Br)c(N)c2C1c1ccccc1` (stereo not drawn) [Compound 106], the EC50 under setting [1] is 0.00893 µM. Moreover, the “Max Plateau” value under setting [2] is reported as 244.21 ± 29.53 per cent fraction of low control.

For the compound `CCC(=O)C1=C(CC)Nc2sc(C(=O)c3ccc(C#N)cc3)c(N)c2C1c1ccccc1` (stereo not drawn) [Compound 112], the “Max Plateau” value under setting [2] is 266.67 ± 57.74 per cent fraction of low control.

On to `CCCC(=O)C1=C(CCC)Nc2sc(C(=O)c3cc(Cl)ccc3Cl)c(N)c2C1c1ccccc1F` (stereo not drawn) [Compound 92], for which the EC50 under setting [1] stood at 0.0505 µM. For the same compound, the “Max Plateau” value under setting [2] is 189.00 ± 25.40 per cent fraction of low control.

As to `CC1=C(C(=O)OCCNC(=O)OC(C)(C)C)C(c2ccccc2F)c2c(sc(C(=O)c3ccc(Cl)c(Cl)c3)c2N)N1` (stereo not drawn) [compound 223], the EC50 worked out at 0.0108 µM and the “Max Plateau” value was determined as 213.11 ± 12.55.

Under setting [1], `CC(=O)C1=C(C)Nc2sc(C(=O)c3cccnc3)c(N)c2C1c1ccccc1` (stereo not drawn) [Compound 5] registered an EC50 of 2.33 µM. Under setting [2], the “Max Plateau” value is 286.43 ± 42.04 per cent fraction of low control.

Regarding `CCC(=O)C1=C(CC)Nc2sc(C(=O)c3ccc(Cl)c(Cl)c3)c(N)c2C1c1ccccc1Cl` (stereo not drawn) [Compound 38], it took 0.0161 µM to reach a half-maximal effect under setting [1] (EC50). Besides, under setting [2], the “Max Plateau” value was 288.93 ± 52.81 per cent fraction of low control.

For the compound `CCC1=C(C(=O)OCCOC)C(c2ccccc2F)c2c(sc(C(=O)c3cccc(Cl)c3)c2N)N1` (single isomer, unassigned) [Compound 187], under setting [4], the “Max Plateau” value was 162.93 ± 10.10 per cent fraction of low control.

Turning to `CCC(=O)C1=C(CC)Nc2sc(C(=O)c3ccc(F)c(F)c3)c(N)c2C1c1cc(F)cc(F)c1` (stereo not drawn) [Compound 101], the EC50 under setting [1] came to 0.00372 µM. Also, the “Max Plateau” value under setting [2] is given as 230.49 ± 17.13 per cent fraction of low control.
